In patent US4257941A, “Polycyclic nitrogen-containing compounds” (BASF Aktiengesellschaft, priority 1976, dated 1981):

Assays:
soybeans = assay: Soybeans in a vegetation experiment in sandy loam (Example 19); type: in vivo, soybean (Gieso variety); details: for Growth height: 4 weeks; for response vs control in vivo at 3000 g/ha / response vs control in vivo at 6000 g/ha: control 100
Experimental: Soybean plants of the Gieso variety were grown in a neutral sandy loam. Fertilization took place at the time of sowing, with 0.5 g N as ammonium nitrate and 1.0 g P2 O5 as secondary potassium phosphate. […]
After 4 weeks, the treated plants were much shorter than the control, and looked more compact as a result of the different angle of the leaves. The prior art compound used for comparison purposes was 2,3,5-triiodobenzoic acid (T; U.S. Pat. No. 2,978,838).

Arachis hypogaea = assay: Growth-regulating action, postemergence, greenhouse (Example 35, Table 1); type: in vivo; details: for growth height relative: control 100
Source text: (§1) The vessels used for the experiments were plastic pots having a volume of 1,130 cm^3 (Table A) or paraffined paper cups having a volume of 170 cm^3 (Table B). The pots and cups were filled with a sandy loam. The seeds of the test plants-separated by species-were sown shallow. Preemergence treatment (soil treatment) was effected immediately after sowing and before germination of the seeds. Seeds lying on the surface came into contact with the active ingredients. Postemergence treatment (leaf treatment) took place at an average growth height of the plants (depending on the rate of growth) of from 6 to 10 cm. The substances were suspended, emulsified or dissolved in water as diluent and applied by means of fine nozzles. The vessels were kept in the greenhouse in a temperature range of 12° C. to 25° C., and were regularly sprinkler irrigated for the duration of the experiment. The observation period was 6 to 8 weeks.
(§2) Further experiments were carried out in the greenhouse under the condition described in Example 11. […] As the plants which were examined liked the warmth (Eupghorbia geniculate, Arachis hypogaea, Cynodon dactylon), they were kept at from 20°-30° C. Cynodon dactylon from seed was cut once and the young growth treated postemergence.

Cynodon dactylon = assay: as above; type: in vivo; details: for growth height relative: control 100
Source text: as §1, §2

grass or lawns = assay: Action on grass or lawns (Example 13); type: in vivo; details: for First cutting, dry substance / First cutting, growth height: 19 days after treatment; for First cutting, dry substance relative / First cutting, growth height relative: control 100
Source text: Lawn seed of the standard mixture Agrostis tenius (10%), Cynosurus cristatus (10%), Festuca rubra (15%), Lolium perenne (35%) and Poa praetensis (30%) was sown in a loam in large pots. The soil was fertilized with 1.5 g N as ammonium nitrate and 1 g P2 O5 as secondary potassium phosphate. After the grass had been cut twice, it was sprayed in conventional manner at a height of 4 cm with the active ingredients at various application rates. 19 days after treatment the growth height and dry substance content were determined. The treated grass was much shorter than the control, and produced a correspondingly lower amount of dry substance.
The prior art compound used for comparison purposes was maleic hydrazide (M; German 815,192).

[1] = Glycine max, 672 h, read-out: Growth height relative
[2] = Glycine max, 672 h, 3.0 kg/ha, read-out: Growth height relative
[3] = Glycine max, 672 h, 6.0 kg/ha, read-out: Growth height relative

## O=C(O)c1cc(I)cc(I)c1I [T, 2,3,5-triiodobenzoic acid, reference compound]
soybeans; 0.125 kg/ha
  Growth height: 23.5 cm
soybeans; 0.375 kg/ha
  Growth height: 25.0 cm
soybeans; 0.750 kg/ha
  Growth height: 23.0 cm
soybeans; [1]
  response vs control in vivo at 125 g/ha: 102%
  response vs control in vivo at 375 g/ha: 109%
  response vs control in vivo at 750 g/ha: 100%

## c1cc2sncc2cc1N1C2C3CC(C4N=NC34)C21 (stereo not shown)
Arachis hypogaea; 0.5 kg/ha
  Growth height: 13 cm
  growth height relative: 81
Arachis hypogaea; 1.0 kg/ha
  Growth height: 12 cm
  growth height relative: 75
Arachis hypogaea; 2.0 kg/ha
  Growth height: 9 cm
  growth height relative: 56
Cynodon dactylon; 0.5 kg/ha
  Growth height: 4 cm
  growth height relative: 36
Cynodon dactylon; 1.0 kg/ha
  Growth height: 4 cm
  growth height relative: 36
Cynodon dactylon; 2.0 kg/ha
  Growth height: 4 cm
  growth height relative: 36

## Clc1ccc(N2C3C4CC(C5N=NC45)C32)cc1Cl (stereo not shown)
Arachis hypogaea; 0.5 kg/ha
  Growth height: 14 cm
  growth height relative: 87
Arachis hypogaea; 1.0 kg/ha
  Growth height: 14 cm
  growth height relative: 87
Arachis hypogaea; 2.0 kg/ha
  Growth height: 10 cm
  growth height relative: 62
Cynodon dactylon; 0.5 kg/ha
  Growth height: 7 cm
  growth height relative: 64
Cynodon dactylon; 1.0 kg/ha
  Growth height: 6 cm
  growth height relative: 54
Cynodon dactylon; 2.0 kg/ha
  Growth height: 6 cm
  growth height relative: 54

## FC(F)(F)c1cccc(N2C3C4CC(C5N=NC45)C32)c1 (stereo not shown) [drawing 434]
Arachis hypogaea; 0.25 kg/ha
  Growth height: 8 cm
  growth height relative: 50
Arachis hypogaea; 0.5 kg/ha
  Growth height: 8 cm
  growth height relative: 50
Arachis hypogaea; 1.0 kg/ha
  Growth height: 7.5 cm
  growth height relative: 47
Arachis hypogaea; 2.0 kg/ha
  Growth height: 5 cm
  growth height relative: 31
Cynodon dactylon; 0.5 kg/ha
  Growth height: 4 cm
  growth height relative: 36
Cynodon dactylon; 1.0 kg/ha
  Growth height: 4 cm
  growth height relative: 36
Cynodon dactylon; 2.0 kg/ha
  Growth height: 3 cm
  growth height relative: 27

## FC(F)(F)c1ccc(Cl)c(N2N=NC3C4CC(C5N=NC45)C32)c1 (stereo not shown) [drawing 396]
soybeans; 3.0 kg/ha, soil
  Growth height: 17.5 cm
soybeans; 6.0 kg/ha, soil
  Growth height: 13.5 cm
soybeans; [2]
  response vs control in vivo at 3000 g/ha: 76.1%
soybeans; [3]
  response vs control in vivo at 6000 g/ha: 58.7%

## CN(C)NC(=O)CCC(=O)O [drawing 437, reference compound]
Arachis hypogaea; 0.25 kg/ha
  Growth height: 9 cm
  growth height relative: 56
Arachis hypogaea; 0.5 kg/ha
  Growth height: 8 cm
  growth height relative: 50
Arachis hypogaea; 1.0 kg/ha
  Growth height: 7 cm
  growth height relative: 44
Arachis hypogaea; 2.0 kg/ha
  Growth height: 7 cm
  growth height relative: 44
Cynodon dactylon; 0.5 kg/ha
  Growth height: 12 cm
  growth height relative: 109
Cynodon dactylon; 1.0 kg/ha
  Growth height: 12 cm
  growth height relative: 109
Cynodon dactylon; 2.0 kg/ha
  Growth height: 9 cm
  growth height relative: 82

## c1csc(N2C3C4CC(C5N=NC45)C32)n1 (stereo not shown)
Cynodon dactylon; 0.5 kg/ha
  Growth height: 8 cm
  growth height relative: 73
Cynodon dactylon; 1.0 kg/ha
  Growth height: 7 cm
  growth height relative: 64
Cynodon dactylon; 2.0 kg/ha
  Growth height: 6 cm
  growth height relative: 54

## Brc1ccccc1N1N=NC2C3CC(C4N=NC34)C21 (stereo not shown) [drawing 398]
soybeans; 3.0 kg/ha, soil
  Growth height: 21.0 cm
soybeans; 6.0 kg/ha, soil
  Growth height: 17.0 cm
soybeans; [2]
  response vs control in vivo at 3000 g/ha: 91.3%
soybeans; [3]
  response vs control in vivo at 6000 g/ha: 73.9%

## Brc1ccc(N2N=NC3C4CC(C5N=NC45)C32)cc1 (stereo not shown) [drawing 379]
Grass or lawns; 0.25 kg/ha
  First cutting, dry substance: 12.8 g
  First cutting, growth height: 25.0 cm
  First cutting, dry substance relative: 102.4
  First cutting, growth height relative: 98.0
Grass or lawns; 0.25 kg/ha, control normal green
  Observations (color): normal green
Grass or lawns; 0.5 kg/ha
  First cutting, dry substance: 11.4 g
  First cutting, growth height: 24.0 cm
  First cutting, dry substance relative: 91.2
  First cutting, growth height relative: 94.1
Grass or lawns; 1.0 kg/ha
  First cutting, dry substance: 8.4 g
  First cutting, growth height: 21.5 cm
  First cutting, dry substance relative: 67.2
  First cutting, growth height relative: 84.2
Grass or lawns; 2.0 kg/ha
  First cutting, dry substance: 6.3 g
  First cutting, growth height: 18.0 cm
  First cutting, dry substance relative: 50.4
  First cutting, growth height relative: 70.5
Grass or lawns; 2.0 kg/ha, control 1.33
  First cutting, chlorophyll content: 1.40 g Ca + b/100 g TS
Grass or lawns; 4.0 kg/ha
  First cutting, dry substance: 4.1 g
  First cutting, growth height: 12.5 cm
  First cutting, dry substance relative: 32.8
  First cutting, growth height relative: 49.0
